Results on nine compounds are retold here after patent publication US20080096933A1, “4-Pyridinylethylcarboxamide Derivatives Useful as Fungicides” (priority 2004, published 2008).

In test [1] the test system is Pyrenophora teres. The test can be described thus: In vivo test on Pyrenophora teres (barley net blotch). The conditions noted are these: barley plants (Express variety), preventive spray, dose of 330 ppm, grading 12 days after contamination, in comparison with control plants. How it is done: In Vivo Test on Pyrenophora teres (Barley Net Blotch)
The active ingredient tested is prepared by potter homogenisation in a concentrated suspension type formulation at 100 g/l. This suspension is then diluted with water to obtain the desired active material concentration.
Barley plants (Express variety) in starter cups, sown on a 50/50 peat soil-pozzolana substrate and grown at 12° C., are treated at the 1-leaf stage (10 cm tall) by spraying with the aqueous suspension described above. Plants, used as controls, are treated with an aqueous solution not containing the active material.
After 24 hours, the plants are contaminated by spraying them with an aqueous suspension of Pyrenophora teres spores (12,000 spores per ml). The spores are collected from a 12-day-old culture The contaminated barley plants are incubated for 24 hours at about 20° C. and at 100% relative humidity, and then for 12 days at 80% relative humidity.
Grading is carried out 12 days after the contamination, in comparison with the control plants. Under these conditions, good (at least 50%) or total protection is observed at a dose of 330 ppm with the following compounds: A-1.

In test [2] the test system is Alternaria brassicae. As to the kind of experiment: Effectiveness on Alternaria brassicae at 330 ppm. It is filed as in vivo.
Test [3] relates to Botrytis cinerea. As to the kind of experiment: Effectiveness on Botrytis cinerea at 330 ppm. It is filed as in vivo.
Test [4] concerns Peronospora parasitica. As to the kind of experiment: Efficacy against Peronospora parasitica at 330 ppm. It is filed as in vivo.

For the compound `Cn1cc(C(=O)NCCc2c(F)c(F)nc(F)c2F)c(C(F)F)n1` [Compound A-1, 3-(difluoromethyl)-1-methyl-N-[2-(2,3,5,6-tetrafluoro-4-pyridinyl)ethyl]-1H-pyrazole-4-carboxamide], the “protection (good (at least 50%) or total)” value in test [1] is on record as “at least 50%”. For the compound `O=C(Cc1cccs1)NCc1ncc(C(F)(F)F)cc1Cl` [compound 101, N-{[3-chloro-5-(trifluoromethyl)-2-pyridinyl]methyl}-5-thienylacetamide], the “effectiveness on Alternaria brassicae” value in test [2] was “poor efficacy”. Further, the “effectiveness on Botrytis cinerea” value in test [3] was “no efficacy”. Moreover, the “efficacy against Peronospora parasitica” value in test [4] is on record as “no efficacy”. Take `CCNC(=O)C(Cc1ncc(C(F)(F)F)cc1Cl)NC(=O)c1ccccc1` (stereo not shown) [compound 304, N-{1-ethylcarbamoyl-2-[3-chloro-5-(trifluoromethyl)-2-pyridinyl]ethyl}-benzamide]: the “effectiveness on Botrytis cinerea” value in test [3] is “zero effectiveness”. For the compound `CCNC(=O)C(Cc1ncc(C(F)(F)F)cc1Cl)NC(=O)c1ccc(Cl)cc1` (stereo not shown) [compound 306, N-{1-ethylcarbamoyl-2-[3-chloro-5-(trifluoromethyl)-2-pyridinyl]ethyl}-4-chlorobenzamide], in test [3], the “effectiveness on Botrytis cinerea” value is on record as “zero effectiveness”.

On to `CCNC(=O)C(Cc1ncc(C(F)(F)F)cc1Cl)NC(=O)c1cccc([N+](=O)[O-])c1` (stereo not shown) [compound 307, N-{1-ethylcarbamoyl-2-[3-chloro-5-(trifluoromethyl)-2-pyridinyl]ethyl}-3-nitrobenzamide], for which the “effectiveness on Alternaria brassicae” value in test [2] is given as “poor effectiveness”. The “effectiveness on Botrytis cinerea” value in test [3] is “zero effectiveness”. For the compound `CCNC(=O)C(Cc1ncc(C(F)(F)F)cc1Cl)NC(=O)c1ccccc1Br` (stereo not shown) [compound 310, N-{1-ethylcarbamoyl-2-[3-chloro-5-(trifluoromethyl)-2-pyridinyl]ethyl}-2-bromobenzamide], the “effectiveness on Botrytis cinerea” value in test [3] was “zero effectiveness”. On the same count and under the same terms, under `CNC(=O)C(Cc1ncc(C(F)(F)F)cc1Cl)NC(=O)c1ccccc1` (stereo not shown) [compound 314, N-{1-methylcarbamoyl-2-[3-chloro-5-(trifluoromethyl)-2-pyridinyl]ethyl}-benzamide] stands “zero effectiveness”; under `CNC(=O)C(Cc1ncc(C(F)(F)F)cc1Cl)NC(=O)c1ccc(OC)cc1` (stereo not shown) [compound 315, N-{1-methylcarbamoyl-2-[3-chloro-5-(trifluoromethyl)-2-pyridinyl]ethyl}-4-methoxybenzamide], “zero effectiveness”. With `CNC(=O)C(Cc1ncc(C(F)(F)F)cc1Cl)NC(=O)c1ccc(-c2ccccc2)cc1` (stereo not shown) [compound 316, N-{1-methylcarbamoyl-2-[3-chloro-5-(trifluoromethyl)-2-pyridinyl]ethyl}-4-phenylbenzamide], the “effectiveness on Alternaria brassicae” value in test [2] was “poor effectiveness”. In test [3], the “effectiveness on Botrytis cinerea” value was “zero effectiveness”.
